What was measured:
[1] = target: T1, IGF-1R (Homo sapiens, UniProt P08069); test: Example B-1: IGF-1R Assay (PC3 cells stimulated with IGF1, AlphaLISA on cell lysates); type: cell-based; conditions: compound two hours, IGF1 200 ng/mL for 30 min, read-out: IC50, Biological Activity against IGF-1R (Table B1)
T1 construct: expressed in transfected cells
Outline: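 IC50 from AlphaLISA read-out of lysed PC3 cells, percent inhibition normalized between vehicle and EC80 controls. Before lysis, cells had 2 h serum-free starvation, 2 h exposure to compound in 3× dilution series, and 30 min IGF1 stimulation at final 200 ng/mL.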

[2] = target: T1, IGF-1R; test: Example B-2: IGF-1R Assay (PathHunter cell lines, EC80 agonist challenge, chemiluminescent detection); type: cell-based; conditions: PathHunter cells, compound 60 minutes at 37° C., EC80 agonist 3 hours; read-out: IC50, Biological Activity against IGF-1R (Table B2)
Outline: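 Read-out is PathHunter chemiluminescence, developed for 1 h at room temperature after a 3 h room-temperature EC80 agonist challenge that followed 60 min compound pre-treatment at 37° C (1% vehicle). IC50 comes from % inhibition normalized to EC80 and vehicle controls.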

T1 sequence (P08069 31-1367): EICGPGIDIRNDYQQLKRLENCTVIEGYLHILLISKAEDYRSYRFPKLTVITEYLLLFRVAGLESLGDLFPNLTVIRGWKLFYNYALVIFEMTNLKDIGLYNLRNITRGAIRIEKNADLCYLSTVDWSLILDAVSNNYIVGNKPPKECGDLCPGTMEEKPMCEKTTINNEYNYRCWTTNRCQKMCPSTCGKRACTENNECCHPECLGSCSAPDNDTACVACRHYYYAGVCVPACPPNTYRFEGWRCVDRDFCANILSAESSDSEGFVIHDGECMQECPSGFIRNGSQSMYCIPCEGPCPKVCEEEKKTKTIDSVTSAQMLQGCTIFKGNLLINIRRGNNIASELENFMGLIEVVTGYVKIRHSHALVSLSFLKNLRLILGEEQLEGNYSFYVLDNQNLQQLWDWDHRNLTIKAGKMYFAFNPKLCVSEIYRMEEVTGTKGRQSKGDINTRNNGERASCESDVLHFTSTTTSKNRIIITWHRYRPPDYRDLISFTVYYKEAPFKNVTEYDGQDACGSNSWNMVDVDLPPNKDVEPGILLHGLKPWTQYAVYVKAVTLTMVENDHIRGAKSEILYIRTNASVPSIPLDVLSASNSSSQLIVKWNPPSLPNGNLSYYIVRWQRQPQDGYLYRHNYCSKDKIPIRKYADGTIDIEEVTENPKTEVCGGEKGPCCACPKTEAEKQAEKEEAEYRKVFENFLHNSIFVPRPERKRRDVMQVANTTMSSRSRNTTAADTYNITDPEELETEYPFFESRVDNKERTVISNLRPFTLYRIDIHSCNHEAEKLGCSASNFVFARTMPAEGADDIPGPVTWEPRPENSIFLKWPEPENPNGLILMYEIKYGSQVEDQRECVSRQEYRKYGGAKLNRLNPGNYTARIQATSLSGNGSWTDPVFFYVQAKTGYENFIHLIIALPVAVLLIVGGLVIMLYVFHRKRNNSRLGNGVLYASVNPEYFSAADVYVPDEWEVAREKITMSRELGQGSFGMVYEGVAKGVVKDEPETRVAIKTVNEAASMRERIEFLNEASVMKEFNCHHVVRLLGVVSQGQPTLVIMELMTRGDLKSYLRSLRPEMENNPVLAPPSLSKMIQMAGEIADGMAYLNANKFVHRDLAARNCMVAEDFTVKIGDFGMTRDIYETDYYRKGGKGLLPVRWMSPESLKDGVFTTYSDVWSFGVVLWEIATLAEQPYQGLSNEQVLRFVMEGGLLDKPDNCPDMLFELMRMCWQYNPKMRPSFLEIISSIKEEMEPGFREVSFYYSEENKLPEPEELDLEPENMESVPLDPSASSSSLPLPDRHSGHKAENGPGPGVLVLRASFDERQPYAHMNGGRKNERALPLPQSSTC

Row | SMILES | IC50 [1] | IC50 [2]
1 | CC1(C)C(=O)N(c2ccc(C3(C(F)(F)F)CCC3)cc2)C(=O)N1Cc1ccnc(NC2CCOCC2)c1 [Compound 130, 5,5-dimethyl-1-((2-((tetrahydro-2H-pyran-4-yl)amino)pyridin-4-yl)methyl)-3-(4-(1-(trifluoromethyl)cyclobutyl)phenyl) imidazolidine-2,4-dione] | ≤ 500 nM | ≤ 500 nM
2 | CC1(C)C(=O)N(c2ccc(C3(C(F)(F)F)CC3)cc2)C(=O)N1Cc1ccnc2c1C(F)(F)C(=O)N2 [Compound 24, 1-((3,3-difluoro-2-oxo-2,3-dihydro-1H-pyrrolo[2,3-b]pyridin-4-yl)methyl)-5,5-dimethyl-3-(4-(1-(trifluoromethyl)cyclopropyl)phenyl) imidazolidine-2,4-dione] | ≤ 500 nM | ≤ 500 nM
3 | CC1(C)C(=O)N(c2ccc(SC(F)(F)F)cc2)C(=O)N1Cc1ccnc2c1CC(=O)N2 [Compound 12, 5,5-dimethyl-1-((2-oxo-2,3-dihydro-1H-pyrrolo[2,3-b]pyridin-4-yl)methyl)-3-(4-((trifluoromethyl)thio)phenyl)imidazolidine-2,4-dione] | ≤ 500 nM | ≤ 500 nM
4 | CC(C)Nc1nccc(CN2C(=O)N(c3ccc(SC(F)(F)F)cc3)C(=O)C2(C)C)c1Br [Compound 390, 1-((3-bromo-2-(isopropylamino)pyridin-4-yl)methyl)-5,5-dimethyl-3-(4-((trifluoromethyl)thio)phenyl)imidazolidine-2,4-dione] | 2000 to 10000 nM | ≤ 500 nM
5 | CC(C)Nc1cc(CN2C(=O)N(c3ccc4c(C(F)(F)F)nn(C)c4c3)C(=O)C2(C)C)ccn1 [Compound 256, 1-((2-(isopropylamino)pyridin-4-yl)methyl)-5,5-dimethyl-3-(1-methyl-3-(trifluoromethyl)-1H-indazol-6-yl)imidazolidine-2,4-dione] | 500 to 2000 nM | 2000 to 10000 nM
6 | CC1(C)Cc2c(CN3C(=O)N(c4ccc(SC(F)(F)F)cc4)C(=O)C3(C)C)ccnc2N1 [Compound 21, 1-((2,2-dimethyl-2,3-dihydro-1H-pyrrolo[2,3-b]pyridin-4-yl)methyl)-5,5-dimethyl-3-(4-((trifluoromethyl)thio)phenyl)imidazolidine-2,4-dione] | ≤ 500 nM | ≤ 500 nM
7 | CC1(C)C(=O)N(c2ccc(C3(C(F)(F)F)CC3)cc2)C(=O)N1Cc1ccnc(N[C@H]2CCCOC2)c1 [Compound 121, (S)-5,5-dimethyl-1-((2-((tetrahydro-2H-pyran-3-yl)amino)pyridin-4-yl)methyl)-3-(4-(1-(trifluoromethyl)cyclopropyl)phenyl) imidazolidine-2,4-dione] | ≤ 500 nM | ≤ 500 nM
8 | CC1(C)COCCC1Nc1cc(CN2C(=O)N(c3ccc(C4(C(F)(F)F)CC4)cc3)C(=O)C2(C)C)ccn1 (stereo not shown) [Compound 132, 1-((2-((3,3-dimethyltetrahydro-2H-pyran-4-yl)amino)pyridin-4-yl)methyl)-5,5-dimethyl-3-(4-(1-(trifluoromethyl)cyclopropyl)phenyl) imidazolidine-2,4-dione] | 2000 to 10000 nM | 500 to 2000 nM
9 | CC1COCCC1Nc1cc(CN2C(=O)N(c3ccc(C4(C(F)(F)F)CC4)cc3)C(=O)C2(C)C)ccn1 (stereo not shown) [Compound 128, 5,5-dimethyl-1-((2-((3-methyltetrahydro-2H-pyran-4-yl)amino)pyridin-4-yl)methyl)-3-(4-(1-(trifluoromethyl)cyclopropyl)phenyl) imidazolidine-2,4-dione] | ≤ 500 nM | ≤ 500 nM
10 | Cn1nc(C(F)(F)F)c2ccc(N3C(=O)N(Cc4ccnc(N)c4)C(C)(C)C3=O)cc21 [Compound 255, 1-((2-aminopyridin-4-yl)methyl)-5,5-dimethyl-3-(1-methyl-3-(trifluoromethyl)-1H-indazol-6-yl)imidazolidine-2,4-dione] | 500 to 2000 nM | 2000 to 10000 nM
11 | CC(C)Nc1cc(CN2C(=O)N(c3ccc(C4CC45CC5)cc3)C(=O)C2(C)C)ccn1 (stereo not shown) [Compound 97, 1-((2-(isopropylamino)pyridin-4-yl)methyl)-5,5-dimethyl-3-(4-(spiro[2.2]pentan-1-yl)phenyl)imidazolidine-2,4-dione] | ≤ 500 nM | ≤ 500 nM
12 | CC(C)Nc1cc(CN2C(=O)N(c3ccc(C(C)(C)C)nc3)C(=O)C2(C)C)ccn1 [Compound 267, 3-(6-(tert-butyl)pyridin-3-yl)-1-((2-(isopropylamino)pyridin-4-yl)methyl)-5,5-dimethylimidazolidine-2,4-dione] | ≤ 500 nM | ≤ 500 nM
13 | CC1(C)C(=O)Nc2nccc(CN3C(=O)N(c4ccc(SC(F)(F)F)cc4)C(=O)C3(C)C)c21 [Compound 19, 1-((3,3-dimethyl-2-oxo-2,3-dihydro-1H-pyrrolo[2,3-b]pyridin-4-yl)methyl)-5,5-dimethyl-3-(4-((trifluoromethyl)thio)phenyl)imidazolidine-2,4-dione] | ≤ 500 nM | ≤ 500 nM
14 | CC1(C)C(=O)N(c2ccc(S(=O)(=O)C(F)(F)F)cc2)C(=O)N1Cc1ccnc2c1CC(=O)N2 [Compound 23, 5,5-dimethyl-1-((2-oxo-2,3-dihydro-1H-pyrrolo[2,3-b]pyridin-4-yl)methyl)-3-(4-((trifluoromethyl)sulfonyl)phenyl)imidazolidine-2,4-dione] | ≤ 500 nM | ≤ 500 nM
15 | CC(C)Nc1cc(CN2C(=O)N(c3ccc4c(c3)N(C)CC4(C)C)C(=O)C2(C)C)ccn1 [Compound 188, 1-((2-(isopropylamino)pyridin-4-yl)methyl)-5,5-dimethyl-3-(1,3,3-trimethylindolin-6-yl)imidazolidine-2,4-dione] | ≤ 500 nM | ≤ 500 nM
16 | CC1(C)C(=O)N(c2ccc(SC(F)(F)F)cc2)C(=O)N1Cc1ccnc2c1CCN2 [Compound 16, 1-((2,3-dihydro-1H-pyrrolo[2,3-b]pyridin-4-yl)methyl)-5,5-dimethyl-3-(4-((trifluoromethyl)thio)phenyl)imidazolidine-2,4-dione] | ≤ 500 nM | ≤ 500 nM
17 | CC(C)Nc1cc(CN2C(=O)N(c3ccc(SC(F)(F)F)cc3)C(=O)[C@@H]2CO)ccn1 [Compound 298, (S)-5-(hydroxymethyl)-1-((2-(isopropylamino)pyridin-4-yl)methyl)-3-(4-((trifluoromethyl)thio)phenyl)imidazolidine-2,4-dione] | > 10000 nM | > 10000 nM
18 | CC(C)Nc1cc(CN2C(=O)N(c3ccc(C4(C)CC4)cc3)C(=O)C2(C)C)ccn1 [Compound 98, 1-((2-(isopropylamino)pyridin-4-yl)methyl)-5,5-dimethyl-3-(4-(1-methylcyclopropyl)phenyl)imidazolidine-2,4-dione] | ≤ 500 nM | ≤ 500 nM
19 | CC(C)Nc1cc(CN2C(=O)N(c3ccc(C4(C#N)CCCC4)cc3)C(=O)C2(C)C)ccn1 [Compound 131, 1-(4-(3-((2-(isopropylamino)pyridin-4-yl)methyl)-4,4-dimethyl-2,5-dioxoimidazolidin-1-yl)phenyl)cyclopentane-1-carbonitrile] | ≤ 500 nM | ≤ 500 nM
20 | CC1(C)C(=O)N(c2ccc(C3(C(F)(F)F)CC3)cc2)C(=O)N1Cc1ccnc(NC2CCOCC2)c1 [Compound 106, 5,5-dimethyl-1-((2-((tetrahydro-2H-pyran-4-yl)amino)pyridin-4-yl)methyl)-3-(4-(1-(trifluoromethyl)cyclopropyl)phenyl) imidazolidine-2,4-dione] | ≤ 500 nM | ≤ 500 nM

Reference: US20250145585A1, “HETEROCYCLIC INHIBITORS OF IGF-1R FOR TREATMENT OF DISEASE” (HORIZON THERAPEUTICS IRELAND DAC, priority 2023, published 2025)
